Laboratory results from patent US11066369B2, “N-(pyridin-2-yl)pyridine-sulfonamide derivatives and their use in the treatment of disease” (Novartis AG, priority 2016, dated 2021).
Where a name gives a salt, the structure may show the parent alone.

Assays:
[1] = molecular target: T1, horseradish peroxidase (HRP) tagged delF508-CFTR (Homo sapiens, UniProt P13569, DEL508-508); assay: Measurement of delF508-CFTR-HRP surface expression in CFBE41o- cells; format: cell-based; settings: delF508-CFTR-HRP surface expression, CFBE41o- cells; for Emax: read-out: DelF508-CFTR-HRP Amax %; for EC50: read-out: DelF508-CFTR-HRP EC50;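 for DelF508-CFTR-HRP Amax %: percent efficacy relative to reference corrector lumacaftor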
T1 construct: expressed in transfected cells
Method in brief: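 CFBE41o- bronchial epithelial cells stably expressing delF508-CFTR with HRP in the fourth extracellular loop; expression induced 48h with 500 ng/mL doxycycline, then compounds added (top 10 μM, 10-point 3-fold series, ≤0.5% DMSO) for 24h at 37° C. Surface HRP measured by luminescence with cell-impermeant substrate; EC50 from logistic fit of triplicates, plate-normalized to lowest concentration; efficacy also relative to a reference corrector.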

delF508-CFTR = molecular target: T2, delF508-CFTR (Homo sapiens, UniProt P13569, DEL508-508); assay: Measurement of delF508-CFTR functional activity in primary human bronchial epithelial cells (HBECs) using Multi-Transepithelial Clamp Circuit (MTECC-24) assay; format: cell-based; settings: primary CF HBECs; for MTECC24 CFHBEC- Amax %: test compound added 24h before assay plus potentiator, relative to reference combination (2 μM corrector + 0.5 μM potentiator); for EC50: test compound added 24h before assay, in the presence of potentiator, mean of at least two replicates, read-out: MTECC24 CFHBEC- EC50
T2 construct: functional activity of the CFTR channel (Chloride ion transport) in patient derived primary human bronchial epithelial cells; host or cells: patient-derived primary human bronchial epithelial cells (delF508-CFTR)
Method in brief: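 Patient-derived primary delF508-CFTR HBECs, differentiated at air-liquid interface ~2 weeks, treated basolaterally with compound for 24 h, then apical and basolateral compound in HEPES pH 7.4 assay medium. Equivalent short-circuit current (Ieq) recorded on MTECC-24 with sequential amiloride, forskolin, potentiator and INH-172; normalized to 0.1% DMSO, EC50 from curve fit.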

T1 sequence (P13569 with tags, fused parts or gaps DEL508-508): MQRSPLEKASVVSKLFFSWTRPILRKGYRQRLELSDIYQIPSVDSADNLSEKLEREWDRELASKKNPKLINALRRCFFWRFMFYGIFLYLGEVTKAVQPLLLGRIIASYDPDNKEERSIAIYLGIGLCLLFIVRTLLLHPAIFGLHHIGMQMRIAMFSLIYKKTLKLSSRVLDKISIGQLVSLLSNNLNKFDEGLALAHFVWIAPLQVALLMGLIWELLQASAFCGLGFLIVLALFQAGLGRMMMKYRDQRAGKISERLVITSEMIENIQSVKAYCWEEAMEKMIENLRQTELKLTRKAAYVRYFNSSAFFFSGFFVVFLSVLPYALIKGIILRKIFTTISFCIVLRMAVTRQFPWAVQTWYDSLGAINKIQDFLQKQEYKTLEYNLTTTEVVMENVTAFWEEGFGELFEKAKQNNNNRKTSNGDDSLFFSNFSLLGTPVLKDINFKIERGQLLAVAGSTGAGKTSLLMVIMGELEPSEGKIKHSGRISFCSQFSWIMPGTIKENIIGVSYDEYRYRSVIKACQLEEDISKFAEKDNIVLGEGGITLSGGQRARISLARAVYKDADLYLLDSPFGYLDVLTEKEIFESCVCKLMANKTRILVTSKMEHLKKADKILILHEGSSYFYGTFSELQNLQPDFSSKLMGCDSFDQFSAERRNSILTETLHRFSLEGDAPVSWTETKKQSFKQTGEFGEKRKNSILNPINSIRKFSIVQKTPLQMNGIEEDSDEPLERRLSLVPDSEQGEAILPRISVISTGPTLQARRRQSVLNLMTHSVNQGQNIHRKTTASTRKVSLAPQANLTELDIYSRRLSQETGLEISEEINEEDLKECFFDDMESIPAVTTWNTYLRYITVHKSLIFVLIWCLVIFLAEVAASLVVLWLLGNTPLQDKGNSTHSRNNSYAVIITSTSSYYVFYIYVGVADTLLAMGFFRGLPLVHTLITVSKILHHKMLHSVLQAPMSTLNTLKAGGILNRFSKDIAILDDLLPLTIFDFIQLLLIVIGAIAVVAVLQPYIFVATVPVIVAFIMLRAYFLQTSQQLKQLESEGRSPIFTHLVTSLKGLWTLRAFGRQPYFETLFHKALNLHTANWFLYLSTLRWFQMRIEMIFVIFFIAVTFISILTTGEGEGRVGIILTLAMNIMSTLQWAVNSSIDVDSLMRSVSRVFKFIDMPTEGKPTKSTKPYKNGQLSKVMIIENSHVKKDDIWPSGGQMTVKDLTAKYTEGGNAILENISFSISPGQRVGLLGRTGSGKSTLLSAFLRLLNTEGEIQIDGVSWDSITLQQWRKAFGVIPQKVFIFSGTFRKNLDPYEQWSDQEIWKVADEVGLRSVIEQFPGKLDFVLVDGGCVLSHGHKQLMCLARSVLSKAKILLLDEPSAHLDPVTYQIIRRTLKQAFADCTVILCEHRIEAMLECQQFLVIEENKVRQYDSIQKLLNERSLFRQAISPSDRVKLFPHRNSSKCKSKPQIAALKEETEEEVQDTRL
T2 sequence (P13569 with tags, fused parts or gaps DEL508-508): as above

Structure (SMILES) | Emax [1] | EC50 [1] | MTECC24 CFHBEC- Amax % (delF508-CFTR) | EC50 (delF508-CFTR)
CO[C@H]1CCNC[C@H]1Nc1cccc(S(=O)(=O)Nc2ccc(C(F)(F)F)c(-c3ccccc3C)n2)n1 [Example 106, 6-(((3R,4S)-4-methoxypiperidin-3-yl)amino)-N-(6-(o-tolyl)-5-(trifluoromethyl)pyridin-2-yl)pyridine-2-sulfonamide Hydrochloride] | 912% | 2.58 µM | 106.4% | 0.0795 µM
Cc1ccccc1-c1nc(NS(=O)(=O)c2cccc(N3CCC4(CCC(CO)[C@H]4N)CC3)n2)ccc1C(F)(F)F (stereo partly drawn) [Example 307, 6-((1R)-1-amino-2-(hydroxymethyl)-8-azaspiro[4.5]decan-8-yl)-N-(6-(o-tolyl)-5-(trifluoromethyl)pyridin-2-yl)pyridine-2-sulfonamide] | 259% | 3.76 µM | 61.5% | 0.0458 µM
Cc1cccc(C)c1-c1nc(NS(=O)(=O)c2cccc(O[C@H]3CC[C@H](C(=O)O)CC3)n2)ccc1Cl [Example 130, (1r,4r)-4-((6-(N-(5-chloro-6-(2,6-dimethylphenyl)pyridin-2-yl)sulfamoyl)pyridin-2-yl)oxy)cyclohexane-1-carboxylic Acid] | 157% | 2.92 µM | 37.9% | 0.0841 µM
Cc1cccc(C)c1-c1nc(NS(=O)(=O)c2cccc(N3CCN[C@H](CO)C3)n2)ccc1C(F)(F)F [Example 173, (S)—N-(6-(2,6-dimethylphenyl)-5-(trifluoromethyl)pyridin-2-yl)-6-(3-(hydroxymethyl)piperazin-1-yl)pyridine-2-sulfonamide Hydrochloride] | 682% | 2.37 µM | 61.4% | 0.0769 µM
Cc1ccccc1-c1nc(NS(=O)(=O)c2cccc(N[C@@H]3COCC[C@@H]3O)n2)ccc1C(F)(F)F (single isomer, unassigned) [Example 281] | 680% | 2.01 µM | 85.9% | 0.0037 µM

Other lines, results leading:

Emax [1] | EC50 [1] | MTECC24 CFHBEC- Amax % (delF508-CFTR) | EC50 (delF508-CFTR) | Structure (SMILES)
554% | 2.44 µM | 61.7% | 0.0094 µM | Cc1ccc(C#N)cc1-c1nc(NS(=O)(=O)c2cccc(N3CC(C)(O)C3)n2)ccc1C(F)(F)F [Example 299, N-(6-(5-cyano-2-methylphenyl)-5-(trifluoromethyl)pyridin-2-yl)-6-(3-hydroxy-3-methylazetidin-1-yl)pyridine-2-sulfonamide]
530% | 2.32 µM | 74.4% | 0.0183 µM | Cc1ccccc1-c1nc(NS(=O)(=O)c2cccc(N3CCNC4(CC4)C3)n2)ccc1C(F)(F)F [Example 302, 6-(4,7-diazaspiro[2.5]octan-7-yl)-N-(6-(o-tolyl)-5-(trifluoromethyl)pyridin-2-yl)pyridine-2-sulfonamide]
570% | 2.62 µM | 75.9% | 0.135 µM | Cc1ccc(F)cc1-c1nc(NS(=O)(=O)c2cccc(N3CC4CCC3CN4)n2)ccc1C(F)(F)F (stereo not shown) [Example 201, 6-(2,5-diazabicyclo[2.2.2]octan-2-yl)-N-(6-(5-fluoro-2-methylphenyl)-5-(trifluoromethyl)pyridin-2-yl)pyridine-2-sulfonamide Hydrochloride]
662% | 0.666 µM | 58.8% | 0.0177 µM | Cc1cccc(C)c1-c1nc(NS(=O)(=O)c2cccc(N3CCN(C(=O)OC(C)(C)C)CC3)n2)ccc1Cl [Example 162, tert-butyl 4-(6-(N-(5-chloro-6-(2,6-dimethylphenyl)pyridin-2-yl)sulfamoyl)pyridin-2-yl)piperazine-1-carboxylate]
627% | 1.5 µM | 44.5% | 0.0094 µM | CC(=O)N1CCN(c2cccc(S(=O)(=O)Nc3ccc(C(F)(F)F)c(-c4cc(F)ccc4C)n3)n2)CC1 [Example 180, 6-(4-acetylpiperazin-1-yl)-N-(6-(5-fluoro-2-methylphenyl)-5-(trifluoromethyl)pyridin-2-yl)pyridine-2-sulfonamide]
